Data on 11 compounds can be found in patent US20240158418A1 (C4 Therapeutics, Inc., priority 2021, published 2024).

Like-named read-outs stand apart in the source and are kept apart here. Some results are limits rather than exact numbers.

Common to all, as to format: cell-based
The target of one assay is T1, EGFR L858R-T790M-C797S (Homo sapiens, UniProt P00533, C797S/L858R/T790M).
T1 construct: generated using CRISPR technology to introduce the additional C797S mutation by Horizon Discovery; host or cells: NCI-H1975+CS (CRISPR knock-in of C797S)
T1 sequence (P00533 25-1210 T790M/C797S/L858R): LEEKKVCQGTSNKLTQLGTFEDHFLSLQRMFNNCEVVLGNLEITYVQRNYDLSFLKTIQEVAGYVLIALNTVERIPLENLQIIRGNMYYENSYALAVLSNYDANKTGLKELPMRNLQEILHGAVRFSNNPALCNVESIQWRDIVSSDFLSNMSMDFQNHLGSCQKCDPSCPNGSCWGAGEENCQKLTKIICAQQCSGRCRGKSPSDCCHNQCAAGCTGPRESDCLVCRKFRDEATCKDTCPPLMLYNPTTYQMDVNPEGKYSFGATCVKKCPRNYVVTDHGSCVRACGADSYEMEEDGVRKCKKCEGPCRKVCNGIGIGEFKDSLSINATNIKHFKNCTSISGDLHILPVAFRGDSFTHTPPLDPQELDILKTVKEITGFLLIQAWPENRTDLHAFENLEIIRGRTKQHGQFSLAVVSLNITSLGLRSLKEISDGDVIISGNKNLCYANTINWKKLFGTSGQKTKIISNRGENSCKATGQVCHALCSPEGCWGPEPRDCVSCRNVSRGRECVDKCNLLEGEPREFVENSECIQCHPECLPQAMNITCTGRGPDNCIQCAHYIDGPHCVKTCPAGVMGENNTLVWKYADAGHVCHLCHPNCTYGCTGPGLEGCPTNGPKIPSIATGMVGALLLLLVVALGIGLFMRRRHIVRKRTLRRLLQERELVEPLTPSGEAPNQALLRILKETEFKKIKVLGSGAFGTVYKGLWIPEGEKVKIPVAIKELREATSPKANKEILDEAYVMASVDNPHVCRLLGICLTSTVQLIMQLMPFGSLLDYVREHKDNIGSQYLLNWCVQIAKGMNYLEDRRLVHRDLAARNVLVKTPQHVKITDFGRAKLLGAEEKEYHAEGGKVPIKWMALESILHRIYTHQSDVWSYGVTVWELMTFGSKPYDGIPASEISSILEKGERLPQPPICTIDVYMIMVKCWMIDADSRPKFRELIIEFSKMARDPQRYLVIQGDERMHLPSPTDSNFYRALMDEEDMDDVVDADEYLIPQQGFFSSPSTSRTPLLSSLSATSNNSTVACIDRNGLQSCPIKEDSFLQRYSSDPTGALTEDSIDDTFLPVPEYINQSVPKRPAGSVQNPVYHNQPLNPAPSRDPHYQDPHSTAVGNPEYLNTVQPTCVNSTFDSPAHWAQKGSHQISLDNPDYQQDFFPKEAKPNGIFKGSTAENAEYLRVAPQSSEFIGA
The assay can be described thus: EGFR degradation, Total EGFR (L858R-specific) HTRF, NCI-H1975+CS. To be noted: 6 hours, Total EGFR HTRF. An excerpt: NCI-H1975 (harboring EGFR heterozygous L858R-T790M mutations) and NCI-H3255 (harboring EGFR heterozygous L858R mutation) were purchased from ATCC and NCI, respectively. NCI-H1975+CS (harboring EGFR heterozygous L858R-T790M-C797S mutations) was generated using CRISPR technology to introduce the additional C797S mutation by Horizon Discovery. A431 (harboring EGFR wildtype) was purchased from ATCC. RPMI 1640 no-phenol red medium and fetal bovine serum (FBS) were purchased from Gibco (Grand Island, NY, USA). Cell culture flasks and 384-well microplates were acquired from VWR (Radnor, PA, USA). Phosphorylated (pY1068) EGFR and Total EGFR (using L858R-specific detection antibody and pan-EGFR antibody for EGFR mutant cell lines and EGFR wild-type cell lines, respectively) HTRF assay kits were purchased from Cisbio (Bedford, MA, USA).
Degradation of EGFR protein containing L858R mutation or wild-type was determined based on quantification of FRET signal using a Total EGFR (L858R-specific or pan-EGFR detecting) HTRF assay kit. Phospho-EGFR (pEGFR) inhibition was determined based on quantification of FRET signal using a pY1068 EGFR HTRF assay kit. In separate assay plates, test compounds were added to the 384-well plate from a top concentration of 10 μM with 11 points, half log titration in duplicates. For each assay, 12.5 uL of cells suspended in assay media (RPMI 1640 no-phenol red medium+10% FBS) at cell densities indicated for each cell line in Table 8 below were dispensed using a multi-channel pipette to 384-well low volume white HTRF microplates containing a duplicate concentration range of test compounds and DMSO controls. The plates were kept at 37° C. with 5% CO2 for 6 hours and then incubated with either phospho EGFR or Total EGFR HTRF detection antibodies according to the cell line and EGFR mutant being assayed. Cells treated in the absence of the test compound were the negative control. Positive control was set by wells containing all reagents but no cells. FRET signal was acquired on EnVision™ Multilabel Reader (PerkinElmer, Santa Clara, CA, USA). Compound concentration that achieves 50% degradation and inhibition was reported as DC50 and IC50, respectively.

The target in another assay is EGFR L858R (Homo sapiens, UniProt P00533, L858R). The assay can be described thus: EGFR degradation, Total EGFR (L858R-specific) HTRF, NCI-H3255. The following applies: NCI-H3255 cells, 6 hours, Total EGFR HTRF, read-out: H3255 EGFR DC50. On the set-up: NCI-H3255 (harboring EGFR heterozygous L858R mutation); host or cells: NCI-H3255. Put shortly:
(§1)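 Cells in RPMI 1640 + 10% FBS treated 6 h at 37°C with compound, 11-point half-log titration from 10 μM top, in duplicate. pY1068 and total EGFR read by HTRF (pan-EGFR antibody for wild-type A431; L858R-specific for mutants); IC50 for phospho inhibition, DC50 for 50% degradation.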
For orientation: In TR-FRET formats the signal depends on donor and acceptor labels being close together.

Another assay has as its target T2, EGFR L858R-T790M (Homo sapiens, UniProt P00533, L858R/T790M).
T2 construct: NCI-H1975 (harboring EGFR heterozygous L858R-T790M mutations); host or cells: NCI-H1975
The assay can be described thus: EGFR degradation, Total EGFR (L858R-specific) HTRF, NCI-H1975. To be noted: NCI-H1975 cells, 6 hours, Total EGFR HTRF, read-out: H1975 EGFR DC50. Put shortly: as §1

The mark [1] stands for this setting: Table 9A, NCI-H1975+CS cells, read-out: H1975+ CS EGFR DC50.

Chain of EGFR L858R (P00533 25-1210 L858R): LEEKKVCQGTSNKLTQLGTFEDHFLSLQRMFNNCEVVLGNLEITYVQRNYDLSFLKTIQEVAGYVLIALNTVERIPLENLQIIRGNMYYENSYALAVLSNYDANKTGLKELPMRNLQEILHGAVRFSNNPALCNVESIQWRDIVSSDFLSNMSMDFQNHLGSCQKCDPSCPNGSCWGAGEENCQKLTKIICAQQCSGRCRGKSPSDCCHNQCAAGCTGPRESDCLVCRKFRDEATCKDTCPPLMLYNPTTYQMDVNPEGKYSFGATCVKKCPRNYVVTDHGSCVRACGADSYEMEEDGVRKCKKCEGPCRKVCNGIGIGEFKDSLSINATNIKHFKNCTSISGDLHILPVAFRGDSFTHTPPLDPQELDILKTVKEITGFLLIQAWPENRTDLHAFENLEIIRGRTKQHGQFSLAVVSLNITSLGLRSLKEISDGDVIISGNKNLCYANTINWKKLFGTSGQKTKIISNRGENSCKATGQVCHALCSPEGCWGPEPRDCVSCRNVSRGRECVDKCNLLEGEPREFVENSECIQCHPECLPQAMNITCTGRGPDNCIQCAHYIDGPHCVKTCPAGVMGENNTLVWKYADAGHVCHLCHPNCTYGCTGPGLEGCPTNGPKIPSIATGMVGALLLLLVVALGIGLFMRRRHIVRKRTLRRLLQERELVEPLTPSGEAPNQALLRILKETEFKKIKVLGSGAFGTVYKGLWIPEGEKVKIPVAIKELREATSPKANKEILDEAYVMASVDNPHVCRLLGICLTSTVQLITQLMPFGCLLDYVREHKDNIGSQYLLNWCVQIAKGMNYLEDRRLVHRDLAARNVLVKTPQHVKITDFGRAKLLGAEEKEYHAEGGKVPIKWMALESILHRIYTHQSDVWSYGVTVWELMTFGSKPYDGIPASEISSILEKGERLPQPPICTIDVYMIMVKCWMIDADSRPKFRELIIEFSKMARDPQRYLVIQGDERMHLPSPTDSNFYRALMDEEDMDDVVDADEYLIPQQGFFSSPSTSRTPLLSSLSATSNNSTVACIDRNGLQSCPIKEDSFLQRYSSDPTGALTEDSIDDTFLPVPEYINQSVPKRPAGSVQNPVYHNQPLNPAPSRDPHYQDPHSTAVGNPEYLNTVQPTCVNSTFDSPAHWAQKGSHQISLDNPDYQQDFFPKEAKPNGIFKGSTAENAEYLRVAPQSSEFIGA
T2 sequence (P00533 25-1210 T790M/L858R): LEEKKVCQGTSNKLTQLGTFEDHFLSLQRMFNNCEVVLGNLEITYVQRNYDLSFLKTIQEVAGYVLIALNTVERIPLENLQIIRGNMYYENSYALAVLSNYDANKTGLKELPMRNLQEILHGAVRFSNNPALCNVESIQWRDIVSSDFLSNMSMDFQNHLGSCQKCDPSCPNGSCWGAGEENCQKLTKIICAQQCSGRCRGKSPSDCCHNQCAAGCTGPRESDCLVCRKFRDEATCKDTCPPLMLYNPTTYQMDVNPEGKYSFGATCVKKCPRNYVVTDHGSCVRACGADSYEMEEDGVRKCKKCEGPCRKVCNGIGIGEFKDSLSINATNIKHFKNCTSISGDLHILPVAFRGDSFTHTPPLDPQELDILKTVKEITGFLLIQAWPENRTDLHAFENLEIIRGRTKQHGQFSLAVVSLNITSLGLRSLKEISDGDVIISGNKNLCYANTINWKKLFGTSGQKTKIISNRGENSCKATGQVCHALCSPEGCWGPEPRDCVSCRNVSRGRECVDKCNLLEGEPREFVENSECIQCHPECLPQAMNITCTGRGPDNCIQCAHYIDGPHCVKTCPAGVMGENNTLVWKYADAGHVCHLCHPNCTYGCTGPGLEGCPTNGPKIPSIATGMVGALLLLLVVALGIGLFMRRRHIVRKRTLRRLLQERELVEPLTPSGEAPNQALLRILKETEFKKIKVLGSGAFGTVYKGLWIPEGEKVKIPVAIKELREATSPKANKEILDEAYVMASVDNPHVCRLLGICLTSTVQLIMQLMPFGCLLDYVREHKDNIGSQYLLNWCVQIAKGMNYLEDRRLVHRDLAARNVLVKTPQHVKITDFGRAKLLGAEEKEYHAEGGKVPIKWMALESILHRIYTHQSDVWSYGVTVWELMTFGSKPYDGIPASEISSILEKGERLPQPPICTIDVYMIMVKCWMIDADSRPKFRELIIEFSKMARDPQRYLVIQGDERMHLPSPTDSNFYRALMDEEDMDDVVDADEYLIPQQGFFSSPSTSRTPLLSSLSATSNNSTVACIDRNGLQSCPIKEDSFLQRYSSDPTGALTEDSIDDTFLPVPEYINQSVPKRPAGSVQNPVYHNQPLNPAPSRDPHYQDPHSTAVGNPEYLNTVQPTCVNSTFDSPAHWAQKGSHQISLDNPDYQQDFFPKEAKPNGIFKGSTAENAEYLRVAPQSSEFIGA

Broadly, the DC50 is the concentration giving 50% degradation. As to `N#Cc1cc(NC2CCC(=O)NC2=O)ccc1C1CCN(CC(=O)N2CCC(Oc3ccc(-c4cc(F)c5c(c4)C(=O)N(C(C(=O)Nc4nccs4)c4ncn6c4CCC6)C5)cc3)CC2)CC1` (stereo not drawn) [Compound 37], the DC50 on EGFR L858R-T790M-C797S (setting [1]), on EGFR L858R (Table 9A) and at EGFR L858R-T790M (Table 9A) was under 50 nM each time.

With `O=C1CCC(Nc2ccc(C3CCN(CC(=O)N4CCC(NC(=O)c5ccc(C#Cc6cc(F)c7c(c6)C(=O)N(C(C(=O)Nc6nccs6)c6ncn8c6CCC8)C7)cn5)CC4)CC3)cc2)C(=O)N1` (stereo not drawn) [Compound 97, 5-((2-(1-(6,7-dihydro-5H-pyrrolo[1,2-c]imidazol-1-yl)-2-oxo-2-(thiazol-2-ylamino)ethyl)-7-fluoro-3-oxoisoindolin-5-yl)ethynyl)-N-(1-(2-(4-(4-((2,6-dioxopiperidin-3-yl)amino)phenyl)piperidin-1-yl)acetyl)piperidin-4-yl)picolinamide], the DC50 at EGFR L858R-T790M-C797S (Table 9B, NCI-H1975 C797S clone, read-out: H1975 C797S clone EGFR DC50) is under 50 nM; on EGFR L858R (Table 9B), under 50 nM; on EGFR L858R-T790M (Table 9B) it was under 50 nM.

`O=C1CC[C@H](Nc2ccc(C3CCN(C(=O)CN4CCN(Cc5ccc(-c6cc(F)c7c(c6)C(=O)N(C(C(=O)Nc6nccs6)c6ncn8c6CCC8)C7)cc5)CC4)CC3)c(F)c2)C(=O)N1` (stereo partly drawn) [Compound 59, 2-(6,7-dihydro-5H-pyrrolo[1,2-c]imidazol-1-yl)-2-[6-[4-[[4-[2-[4-[4-[[(3S)-2,6-dioxo-3-piperidyl]amino]-2-fluoro-phenyl]-1-piperidyl]-2-oxo-ethyl]piperazin-1-yl]methyl]phenyl]-4-fluoro-1-oxo-isoindolin-2-yl]-N-thiazol-2-yl-acetamide]: the DC50 at EGFR L858R-T790M-C797S (setting [1]), on EGFR L858R (Table 9A) and on EGFR L858R-T790M (Table 9A) was under 50 nM throughout.

Turning to `N#Cc1cc(NC2CCC(=O)NC2=O)ccc1C1CCN(CC(=O)N2CCN(c3ccc(-c4cc(F)c5c(c4)C(=O)N(C(C(=O)Nc4nccs4)c4ncn6c4CCC6)C5)cc3)CC2)CC1` (stereo not drawn) [Compound 14, 2-[6-[4-[4-[2-[4-[2-cyano-4-[(2,6-dioxo-3-piperidyl)amino]phenyl]-1-piperidyl]acetyl]piperazin-1-yl]phenyl]-4-fluoro-1-oxo-isoindolin-2-yl]-2-(6,7-dihydro-5H-pyrrolo[1,2-c]imidazol-1-yl)-N-thiazol-2-yl-acetamide], the DC50 on EGFR L858R-T790M-C797S (setting [1]), on EGFR L858R (Table 9A) and on EGFR L858R-T790M (Table 9A) was under 50 nM in each case.

`N#Cc1cc(NC2CCC(=O)NC2=O)ccc1C1CCN(CC(=O)N2CCC(c3ccc(-c4cc(F)c5c(c4)C(=O)N(C(C(=O)Nc4nccs4)c4ncn6c4CCC6)C5)cc3)CC2)CC1` (stereo not drawn) [Compound 25, 2-(6-(4-(1-(2-(4-(2-cyano-4-((2,6-dioxopiperidin-3-yl)amino)phenyl)piperidin-1-yl)acetyl)piperidin-4-yl)phenyl)-4-fluoro-1-oxoisoindolin-2-yl)-2-(6,7-dihydro-5H-pyrrolo[1,2-c]imidazol-1-yl)-N-(thiazol-2-yl)acetamide]: the DC50 on EGFR L858R-T790M-C797S (setting [1]), at EGFR L858R (Table 9A) and on EGFR L858R-T790M (Table 9A) was under 50 nM each time.

`O=C1CC[C@H](Nc2ccc(C3CCN(CC(=O)N4CCC(Oc5ccc(-c6cc(F)c7c(c6)C(=O)N(C(C(=O)Nc6nccs6)c6ncn8c6CCC8)C7)cc5)CC4)CC3)cc2)C(=O)N1` (stereo partly drawn) [Compound 32, 2-(6,7-dihydro-5H-pyrrolo[1,2-c]imidazol-1-yl)-2-[6-[4-[[1-[2-[4-[4-[[(3S)-2,6-dioxo-3-piperidyl]amino]phenyl]-1-piperidyl]acetyl]-4-piperidyl]oxy]phenyl]-4-fluoro-1-oxo-isoindolin-2-yl]-N-thiazol-2-yl-acetamide]: the DC50 on EGFR L858R-T790M-C797S (setting [1]), at EGFR L858R (Table 9A) and at EGFR L858R-T790M (Table 9A) was under 50 nM in each case.

On to `O=C1CC[C@H](Nc2ccc(C3CCN(CC(=O)N4CCC(c5ccc(-c6cc(F)c7c(c6)C(=O)N(C(C(=O)Nc6nccs6)c6ncn8c6CCC8)C7)cc5)CC4)CC3)c(F)c2)C(=O)N1` (stereo partly drawn) [Compound 24, 2-(6,7-dihydro-5H-pyrrolo[1,2-c]imidazol-1-yl)-2-(6-(4-(1-(2-(4-(4-(((S)-2,6-dioxopiperidin-3-yl)amino)-2-fluorophenyl)piperidin-1-yl)acetyl)piperidin-4-yl)phenyl)-4-fluoro-1-oxoisoindolin-2-yl)-N-(thiazol-2-yl)acetamide], for which the DC50 was under 50 nM on EGFR L858R-T790M-C797S (setting [1]), under 50 nM at EGFR L858R (Table 9A) and 50 to 150 nM at EGFR L858R-T790M (Table 9A).

Take `O=C1CCC(Nc2ccc(C3CCN(CC(=O)N4CCN(Cc5ccc(-c6cc(F)c7c(c6)C(=O)N(C(C(=O)Nc6nccs6)c6ncn8c6CCC8)C7)cc5)CC4)CC3)c(F)c2)C(=O)N1` (stereo not drawn) [Compound 57, 2-(6,7-dihydro-5H-pyrrolo[1,2-c]imidazol-1-yl)-2-[6-[4-[[4-[2-[4-[4-[(2,6-dioxo-3-piperidyl)amino]-2-fluoro-phenyl]-1-piperidyl]acetyl]piperazin-1-yl]methyl]phenyl]-4-fluoro-1-oxo-isoindolin-2-yl]-N-thiazol-2-yl-acetamide]: the DC50 on EGFR L858R-T790M-C797S (setting [1]), on EGFR L858R (Table 9A) and at EGFR L858R-T790M (Table 9A) was under 50 nM throughout.

As to `O=C1CCC(Nc2ccc(C3CCN(CC(=O)N4CCC(Oc5ccc(-c6cc(F)c7c(c6)C(=O)N(C(C(=O)Nc6nccs6)c6ncn8c6CCC8)C7)cc5)CC4)CC3)c(F)c2)C(=O)N1` (stereo not drawn) [Compound 35, 2-(6,7-dihydro-5H-pyrrolo[1,2-c]imidazol-1-yl)-2-(6-(4-((1-(2-(4-(4-((2,6-dioxopiperidin-3-yl)amino)-2-fluorophenyl)piperidin-1-yl)acetyl)piperidin-4-yl)oxy)phenyl)-4-fluoro-1-oxoisoindolin-2-yl)-N-(thiazol-2-yl)acetamide], the DC50 on EGFR L858R-T790M-C797S (setting [1]), on EGFR L858R (Table 9A) and on EGFR L858R-T790M (Table 9A) was under 50 nM throughout.

As to `O=C1CCC(Nc2ccc(C3CCN(CC(=O)N4CCC(c5ccc(-c6cc(F)c7c(c6)C(=O)N(C(C(=O)Nc6nccs6)c6ncn8c6CCC8)C7)cc5)CC4)CC3)cc2)C(=O)N1` (stereo not drawn) [Compound 21, 2-(6,7-dihydro-5H-pyrrolo[1,2-c]imidazol-1-yl)-2-(6-(4-(1-(2-(4-(4-((2,6-dioxopiperidin-3-yl)amino)phenyl)piperidin-1-yl)acetyl)piperidin-4-yl)phenyl)-4-fluoro-1-oxoisoindolin-2-yl)-N-(thiazol-2-yl)acetamide], the DC50 on EGFR L858R-T790M-C797S (setting [1]), at EGFR L858R (Table 9A) and at EGFR L858R-T790M (Table 9A) was under 50 nM throughout.

Regarding `O=C1CC[C@H](Nc2ccc(C3CCN(CC(=O)N4CCN(c5ccc(-c6cc(F)c7c(c6)C(=O)N(C(C(=O)Nc6nccs6)c6ncn8c6C[C@@H](F)C8)C7)cc5)CC4)CC3)c(F)c2)C(=O)N1` (stereo partly drawn) [Compound 44, 2-[6-[4-[4-[2-[4-[4-[[(3S)-2,6-dioxo-3-piperidyl]amino]-2-fluoro-phenyl]-1-piperidyl]acetyl]piperazin-1-yl]phenyl]-4-fluoro-1-oxo-isoindolin-2-yl]-2-[(6R)-6-fluoro-6,7-dihydro-5H-pyrrolo[1,2-c]imidazol-1-yl]-N-thiazol-2-yl-acetamide], the DC50 at EGFR L858R-T790M-C797S (setting [1]), on EGFR L858R (Table 9A) and at EGFR L858R-T790M (Table 9A) was under 50 nM each time.
